{"source": "patent US7001920B2", "about": "“Formate salt of O-desmethyl-venlafaxine” (Wyeth, priority 2002, dated 2006)", "key": {"[1]": {"assay": "Human fraction of dose absorbed (Fa) predicted from rat Peff", "settings": "for human in vivo Fa (fraction of dose absorbed), estimated: small intestine", "from_the_text": "(§1) The rat intestine perfusion technique is a direct way to measure the regional absorption properties of a test compound in the gastrointestinal tract. Rat intestinal permeability coefficient (Peff) can be used to predict human in vivo oral absorption of passively absorbed compounds. Fagerholm, M. Johansson, and H. Lennernäs, ? Comparison between permeability coefficients in rat and human jejunum”, Pharm. […] Other characteristics such as formulable Maximum Absorbable Dose (MAD), FDA Biopharmaceutical Classification, etc. can also be estimated.\nThe fraction of dose absorbed, Fa, in human is currently predicted from (Fagerholm, M. ibid: Fa=100*(1−e^−(2*(Peff,rat+β)*(tres/r)) where […] are the correction factors, tres is the residence time in human small intestine; and r is the radius of the human small intestine. Results Rat Jejunal Perfusion Results Site-Specific Absorption of ODV Formate"}, "[2]": {"assay": "Rat intestinal perfusion test (in situ), effective intestinal permeability Peff", "assay_type": "in vivo", "settings": "for Peff ODV Fumarate: 50 μg/ml in pH 6.8 perfusion buffer", "description": "O-desmethyl venlafaxine formate was evaluated for oral absorption characteristics. The rat intestinal perfusion model was used.\nRat Intestinal Perfusion Test\nas §1\nPerfusion buffer (PB) consisted of KC1 (5.4 mM), NaC1 (48 mM), Na2HPO4 (28 mM), NaH2PO4 (43 mM), mannitol (35 mM), polyethylene glycol (PEG)-4000 (0.1%, w/v), glucose (10 mM). The pH was adjusted to 6.8 with NaOH and osmolarity was adjusted to 290+10 mOsm/l with 1.0 M NaC1. Before the experiment, ^14C-PEC-4000 (0.02 μCi/mL), 3H-mannitol (0.025 μCi/mL), metoprolol (20 μg/mL), and ODV formate or fumarate (50 μg/mL) were added.\nRats used in this study were Charles River CD males, ranging in weight from approximately 300–350 grams.\nMetoprolol (a well-absorbed and passively transported compound) was used as a standard and tested simultaneously along with the ODV compounds. Glucose (a well-absorbed and actively transported compound) was used to monitor the physiological functionality of the intestinal barriers. ^14C-labeled PEG-4000 was used as a non-absorbable marker to describe the water flux across the intestinal wall. ^3H-labeled mannitol was used as a paracellularly transported marker to indicate the integrity of the intestinal tight junctions.\nAll chemicals were of analytical grade. After each experiment, all the analytical assays were performed promptly. For isotope determinations, 0.5 mL of perfusate sample containing ^14C PEG-4000 and ^3H-mannitol was mixed with 5 mL of scintillation cocktail. Radioactivity was counted in a liquid scintillation counter (Wallac 1409). Glucose concentration was determined by the glucose oxidase method (Biochemistry Analyzer). Metoprolol and the ODV compounds were analyzed by HPLC-UV/Vis (HP-1100 with a diode-array detector), using a YMC AQ 120μ, 5μ, 150×4.6 mm column and step gradient mobile phase containing water/0.1% TFA and acetonitrile. The ODV compounds and metoprolol were detected at 226 and 272 nm UV wavelength, respectively. Blank perfusate was assayed to evaluate the interference at these chromatographic conditions.\nThe perfusions were performed in three intestinal sections of anesthetized rats: duodenum-jejunum, ileum, and colon. The lengths of the segments were approximately 10–12 cm for small intestine segments and 5–6 cm for colon segments. An inflow cannula was inserted at the proximal end and an outflow cannula was inserted at the distal end. Perfusate was pumped through the segment at 0.19 mL/min, and collected at 20, 40, 55, 70, 85 and 100 minutes.\nODV formate or fumarate was added to the perfusion working buffer at a concentration of 50 μg/mL, which is approximately equivalent to a 200 mg human dose. The disappearance rates of ODV compound, metoprolol, and glucose were determined from each collection interval by comparing to the initial compound solution remaining in the syringe at the end of the 100 minutes. This is to correct for any losses due to binding to the syringe or tubing. Meanwhile, drug concentration in perfusate samples were corrected for water influx/efflux, which was computed, based on ^14C-PEG-4000 concentration changes.\nRecovery of ^14C-PEG-4000 was determined to provide information on the integrity of the perfused intestinal segment: % PEGrec=(ΣPEGout/ΣPEGin)*100\nOverall ^14C-PEG-4000 recovery was calculated and any data for which the individual recovery fell outside of the range of 96%–103% was excluded from the data set. […]"}, "Solubility in water": {"assay": "Solubility in water", "assay_type": "physicochemical", "settings": "26 °C, room temperature (about 25 to 27° C.)", "from_the_text": "High solubility and high oral absorption are desireable characteristics of a drug, making this salt form of O desmethyl venlafaxine a particularly useful form of O-desmethyl venlafaxine."}, "Serotonin reuptake": {"system": "Serotonin reuptake", "settings": "in vitro; read-out: Inhibition of amine reuptake (IC50): Serotonin; cited from earlier work"}, "Adrenergic a": {"system": "Adrenergic a", "settings": "cited from earlier work"}, "Histamine H1": {"system": "Histamine H1", "settings": "cited from earlier work"}, "Dopamine reuptake": {"system": "Dopamine reuptake", "settings": "in vitro; read-out: Inhibition of amine reuptake (IC50): Dopamine; cited from earlier work"}, "Norepinephrine reuptake": {"system": "Norepinephrine reuptake", "settings": "in vitro; read-out: Inhibition of amine reuptake (IC50): Norepinephrine; cited from earlier work"}, "D2": {"system": "D2", "settings": "cited from earlier work"}, "Cholinergic": {"system": "Cholinergic", "settings": "cited from earlier work"}, "Opiate": {"system": "Opiate", "settings": "cited from earlier work"}, "[3]": {"settings": "in vivo, i.p.; cited from earlier work"}, "[4]": {"settings": "male, CD, in vivo, 100 min, 50 μg/mL, pH 6.8"}}, "note": "pIC50: −log10 of the molar value.", "data": [{"smiles": "CN(C)CC(c1ccc(O)cc1)C1(O)CCCCC1.O=CO", "note": "(centres unmarked) [ODV formate, O-desmethylvenlafaxine formate]", "values": [{"measurement": "human in vivo Fa (fraction of dose absorbed), estimated", "setting": "[1]", "result": "about 80%"}, {"measurement": "Peff as percent of metoprolol's Peff value", "setting": "[2]; [4]", "result": "about 12%"}, {"measurement": "Peff values in the small intestine", "setting": "[2]; [4]", "result": "1.34–2.18 10^−5 cm/sec"}, {"measurement": "solubility", "setting": "Solubility in water", "result": "> 425", "unit": "mg/mL"}]}, {"smiles": "CN(C)CC(c1ccc(O)cc1)C1(O)CCCCC1.O=C(O)/C=C/C(=O)O", "note": "(centres unmarked) [ODV fumarate]", "values": [{"measurement": "in vivo Fa (fraction of dose absorbed), estimated", "setting": "[1]; colon", "result": 0, "unit": "%"}, {"measurement": "human in vivo Fa (fraction of dose absorbed), estimated", "setting": "[1]", "result": "33–45%"}, {"measurement": "Absorption in the colon", "setting": "[2]; colon", "result": "no measurable absorption"}, {"measurement": "Peff ODV Fumarate / Peff Metoprolol", "setting": "[2]; colon", "result": 0}, {"measurement": "Peff ODV Fumarate", "setting": "[2]; colon", "result": "0 10^−5 cm/sec"}, {"measurement": "Peff ODV Fumarate / Peff Metoprolol", "setting": "[2]; ileum", "result": "0.19 ± 0.06"}, {"measurement": "Peff ODV Fumarate", "setting": "[2]; ileum", "result": "0.678 ± 0.295 10^−5 cm/sec"}, {"measurement": "Peff ODV Fumarate / Peff Metoprolol", "setting": "[2]; jejunum", "result": 0.09}, {"measurement": "Peff ODV Fumarate", "setting": "[2]; jejunum", "result": "0.245 10^−5 cm/sec"}, {"measurement": "Peff values in the small intestine", "setting": "[2]; small intestine (jejunum to ileum)", "result": "0.24–0.68 10^−5 cm/sec"}]}, {"smiles": "COCCc1ccc(OCC(O)CNC(C)C)cc1", "note": "(centres unmarked) [Metoprolol]", "values": [{"measurement": "Peff Metoprolol", "setting": "[2]; colon, metoprolol 20 μg/mL tested simultaneously with ODV formate", "result": "0.583 ± 0.087 10^−5 cm/sec"}, {"measurement": "Peff Metoprolol", "setting": "[2]; colon, metoprolol 20 μg/mL tested simultaneously with ODV fumarate", "result": "11 10^−5 cm/sec"}, {"measurement": "Peff Metoprolol", "setting": "[2]; ileum, metoprolol 20 μg/mL tested simultaneously with ODV formate", "result": "3.22 ± 0.07 10^−5 cm/sec"}, {"measurement": "Peff Metoprolol", "setting": "[2]; ileum, metoprolol 20 μg/mL tested simultaneously with ODV fumarate", "result": "5.3 10^−5 cm/sec"}, {"measurement": "Peff Metoprolol", "setting": "[2]; jejunum, metoprolol 20 μg/mL tested simultaneously with ODV formate", "result": "2.50 ± 0.11 10^−5 cm/sec"}, {"measurement": "Peff Metoprolol", "setting": "[2]; jejunum, metoprolol 20 μg/mL tested simultaneously with ODV fumarate", "result": "1.78 ± 0.93 10^−5 cm/sec"}]}, {"smiles": "CN(C)CC(c1ccc(O)cc1)C1(O)CCCCC1", "note": "(centres unmarked) [O-desmethylvenlafaxine, 1-[2-(dimethylamino)-1-(4-phenol)ethyl]cyclohexanol]", "values": [{"measurement": "pIC50", "setting": "Serotonin reuptake", "result": 6.74}, {"measurement": "Affinity for Various Neuroreceptors (% inhibition at 1 uM): Adrenergic a", "setting": "Adrenergic a", "result": 0, "unit": "%"}, {"measurement": "Affinity for Various Neuroreceptors (% inhibition at 1 uM): Histamine H1", "setting": "Histamine H1", "result": 0, "unit": "%"}, {"measurement": "pIC50", "setting": "Dopamine reuptake", "result": 4.87}, {"measurement": "pIC50", "setting": "Norepinephrine reuptake", "result": 5.94}, {"measurement": "Affinity for Various Neuroreceptors (% inhibition at 1 uM): D2", "setting": "D2", "result": 6, "unit": "%"}, {"measurement": "Affinity for Various Neuroreceptors (% inhibition at 1 uM): Cholinergic", "setting": "Cholinergic", "result": 7, "unit": "%"}, {"measurement": "Affinity for Various Neuroreceptors (% inhibition at 1 uM): Opiate", "setting": "Opiate", "result": 7, "unit": "%"}, {"measurement": "Reversal of Reserpine-Induce Hypothermia (minimum effect)", "setting": "[3]", "result": 3, "unit": "mg/kg i.p."}]}]}
